From patent publication US5478854A, “Deoxy taxols” (Bristol-Myers Squibb Company, priority 1994, dated 1995)
Where two headings read alike, the source gives them in different places.

What was measured:
[1] = test system: human colon carcinoma cells HCT-116/VM46; assay: In vitro cytotoxicity (XTT assay), 72 h, HCT-116/VM46 multi-drug resistant cells; format: cell-based; conditions: for IC50: Homo sapiens, read-out: IC50, drug concentration required to inhibit cell proliferation to 50% of untreated control
[2] = test system: human colon carcinoma cells HCT-116; assay: In vitro cytotoxicity (XTT assay), 72 h, HCT-116 human colon carcinoma cells; format: cell-based; conditions: read-out: IC50, drug concentration required to inhibit cell proliferation to 50% of untreated control
[3] = test system: advanced cases of ovarian, breast, and other cancers; conditions: NCI trials; cited from earlier work
[4] = HCT-116/VM46 vs HCT-116, value in parentheses, 4320 min
[5] = HCT-116/VM46 (teniposide-selected, multi-drug resistant), XTT, 72 h

SMILES	fold resistance relative to HCT116 cells [1, 4]	IC50 [1, 5]	IC50 ([2]; HCT-116, XTT, 72 h)	IC50 ([2]; HCT-116, 72 h)	IC50 ([1]; HCT-116/VM46, 72 h)	fold resistance relative to HCT116 cells ([1]; human, hct-116/vm46 vs hct-116, 4320 min)	clinical results in advanced cancers (in words) [3]
CC(=O)O[C@H]1C(=O)[C@]2(C)CC[C@H]3OC[C@@]3(OC(C)=O)[C@H]2[C@H](OC(=O)c2ccccc2)[C@]2(O)C[C@H](OC(=O)[C@H](O)[C@@H](NC(=O)OC(C)(C)C)c3ccccc3)C(C)=C1C2(C)C [Ia, N-Debenzoyl-N-t-butoxycarbonyl-7-deoxytaxol]	3.5 fold	7 nM	2 nM	–	–	–	–
CC(=O)O[C@H]1C(=O)[C@]2(C)CC[C@H]3OC[C@@]3(OC(C)=O)[C@H]2[C@H](OC(=O)c2ccccc2)[C@]2(O)C[C@H](OC(=O)[C@H](O)[C@@H](NC(=O)c3ccccc3)c3ccccc3)C(C)=C1C2(C)C [Ib, 7-Deoxytaxol]	14 fold	55 nM	4 nM	–	–	–	–
CC(=O)O[C@@]12CO[C@@H]1C[C@H](O)[C@@]1(C)C(=O)[C@H](O)C3=C(C)[C@@H](OC(=O)[C@H](O)[C@@H](NC(=O)OC(C)(C)C)c4ccccc4)C[C@@](O)([C@@H](OC(=O)c4ccccc4)[C@H]21)C3(C)C [taxotere, reference compound]	53 fold	213 nM	4 nM	–	–	–	–
CC(=O)O[C@@]12CO[C@@H]1CC[C@@]1(C)C(=O)CC3=C(C)[C@@H](OC(=O)[C@H](O)[C@@H](NC(=O)c4ccccc4)c4ccccc4)C[C@@](O)([C@@H](OC(=O)c4ccccc4)[C@H]21)C3(C)C [Id, 7-Deoxy-10-desacetyloxytaxol]	–	–	–	29 nM	–	–	–
CC(=O)O[C@H]1C(=O)[C@@]2(C)[C@H]([C@H](OC(=O)c3ccccc3)[C@]3(O)C[C@H](OC(=O)[C@H](O)[C@@H](NC(=O)c4ccccc4)c4ccccc4)C(C)=C1C3(C)C)[C@]1(OC(C)=O)CO[C@@H]1C[C@@H]2O [Taxol]	–	–	–	4 nM	440 nM	124 fold	promising results
CC(=O)O[C@@]12CO[C@@H]1CC[C@@]1(C)C(=O)CC3=C(C)[C@@H](OC(=O)[C@H](O)[C@@H](NC(=O)OC(C)(C)C)c4ccccc4)C[C@@](O)([C@@H](OC(=O)c4ccccc4)[C@H]21)C3(C)C [Ic, N-Debenzoyl-N-t-butoxycarbonyl-7-deoxy-10-deoxy-10-desacetyloxytaxol]	–	–	–	12 nM	–	–	–
